pKd: −log10 of the molar value.
Key:
[1] = molecular target: T1, KRAS G12V (Homo sapiens, UniProt P01116, G12V); assay: Guanine nucleotide binding assay; set-up: made in house; host or cells: E. coli BL21 (DE3); settings: in the presence of compound, 37° C., liquid scintillation counting
Procedure: The recombinant gene KRAS G12V was inserted into E. coli BL21 (DE3) for expression. The overexpressed protein was purified using affinity chromatography and gel filtration chromatography. Purified KRAS G12V protein was bound to Ni-NTA beads using binding buffer [50 mM Hepes (pH 7.5), 100 mM NaCl, 2 mM MgCl2, 1 mM EDTA, and 1 mM DTT] at 4° C. Ni-NTA beads bound with KRAS G12V proteins were washed with binding buffer and then reacted with radioisotope [α-^32P] GTP (2,500 cpm/pmol), GTP, and salvianolic acid B or tanshinone I at 37° C. The beads were then washed with wash buffer [20 mM Tris-HCl (pH 7.4), 100 mM NaCl, and 2 mM MgCl2]. 200 mM imidazole was used to elute the bead-bound KRAS G12V protein, and radioactive nucleotides were quantified by liquid scintillation counting.

[2] = tested on: NCI-H460 (lung cancer); assay: MTT cell viability assay; type: cell-based, human; settings: NCI-H460, cultured 24 and 48 hours, increasing concentrations; time- and dose-dependent
Procedure: (§1) To verify the efficacy of salvianolic acid B (Sigma-Aldrich) and tanshinone I (Sigma-Aldrich) on tumor cells, MTT (3-(4,5-dimethylthiazol-2-yl)-2,5-diphenyltetrazolium bromide) assay was applied to measure cell viability.
(§2) For the experiment, AsPC-1 (pancreatic cancer), HCT116 (colon cancer), and NCI-H460 (lung cancer) were used as tumor cell lines, and each tumor cell was dispensed by 1×10^3 cells/well (100 μL). After dispensing, all cells were attached to the wells for 24 hours. […] After culturing the drug-treated tumor cells for 24 and 48 hours, MTT at a concentration of 5 mg/mL was added to each tumor cell, followed by culture for 90 minutes again. Finally, the optical density (OD) of the tumor cells was measured at 540 nm using a microplate reader (Molecular Devices, USA). The analysis was performed three or more times.

[3] = tested on: AsPC-1 (pancreatic cancer); assay: MTT cell viability assay; type: cell-based, human; settings: AsPC-1, cultured 24 and 48 hours, increasing concentrations; time- and dose-dependent
Procedure: as §1, §2

[4] = tested on: HCT116 (colon cancer); assay: MTT cell viability assay; type: cell-based, human; settings: HCT116, cultured 24 and 48 hours, increasing concentrations; time- and dose-dependent
Procedure: as §1, §2

[5] = molecular target: T1, KRAS G12V; assay: Isothermal titration calorimetry (ITC); settings: 25° C., read-out: binding affinity KD
Procedure: In order to identify the affinity of salvianolic acid B or tanshinone I for the KRAS mutant KRAS G12V protein, isothermal titration calorimetry (ITC) was used. KRAS G12V protein was dialyzed using buffer [20 mM Tris-HCl (pH 7.4), 100 mM NaCl, and 2 mM MgCl2]. Next, salvianolic acid B or tanshinone I was dissolved using the same buffer, and then the prepared KRAS G12V protein and salvianolic acid B or tanshinone I were injected into an isothermal calorimeter to perform isothermal titration thermometry. Titration measurement was performed at 25° C., involved with 20 injections at an interval of 200 seconds while salvianolic acid B or tanshinone I was stirred at 1,000 rpm. ΔS was calculated from standard thermodynamic equations using the calculated K and ΔH values. Isothermal titration thermometric analysis was performed using a MicroCal AutoITC200 (GE Healthcare, Sweden), and data were analyzed using the Origin 7.0 program.

T1 sequence (P01116 1-188 isoform P01116-2 G12V): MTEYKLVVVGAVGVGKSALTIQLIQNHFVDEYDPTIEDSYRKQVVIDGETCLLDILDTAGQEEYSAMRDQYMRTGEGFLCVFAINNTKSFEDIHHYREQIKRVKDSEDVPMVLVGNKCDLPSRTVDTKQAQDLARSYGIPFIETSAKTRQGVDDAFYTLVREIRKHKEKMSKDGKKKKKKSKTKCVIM

SMILES	activity of radioisotope [α-32P] GTP binding of KRAS G12V [1]	cell viability [2]	cell viability [3]	cell viability [4]	pKd [5]
O=C(/C=C/c1ccc(O)c2c1[C@H](C(=O)O[C@H](Cc1ccc(O)c(O)c1)C(=O)O)[C@@H](c1ccc(O)c(O)c1)O2)O[C@H](Cc1ccc(O)c(O)c1)C(=O)O [salvianolic acid B]	decreased	decrease in cell viability	decrease in cell viability	decrease in cell viability	4.49
Cc1coc2c1C(=O)C(=O)c1c-2ccc2c(C)cccc12 [tanshinone I]	decreased	decrease in cell viability	decrease in cell viability	decrease in cell viability	4.68

From patent US20230147718A1, “COMPOSITION FOR CANCER PREVENTION OR TREATMENT, CONTAINING, AS ACTIVE INGREDIENT, SALVIANOLIC ACID B OR TANSHINONE I” (GJMEDI, priority 2020, published 2023)
